We go through three compounds from publication PMC7663263 (Molecules, 2020).

Like-named read-outs stand apart in the source and are kept apart here.

For data set [1] the following is noted: 1–2 h after oral administration; cited from earlier work.
Data set [2] can be described thus: Cytotoxicity on human fetal lung fibroblast MRC-5. The conditions noted are these: human, mrc-5 cells. The protocol: (§1) Toxicity in human fetal lung fibroblast (MRC-5) cell line and primary mouse macrophages (PMM) was assessed using a previously reported assay in 96-well microtiter plates. Tamoxifen and miltefosine were included as reference drugs (Table 10).
(§2) For MRC5SV2 or PMM cells, the assays were performed in 96-well microtiter plates, each well containing 10 µL of compound dilution and 190 µL of cell inoculum (3 × 10^4 cells/mL) as reported. Cell growth was compared to untreated controls (100% growth) and assay-media controls (0% growth). After three-day incubation, cell viability was assessed fluorometrically by adding resazurin [50 µL/well of a stock solution in phosphate buffer (50 µg/mL)], incubating for 4 h and measuring fluorescence (ex 550 nm, em 590 nm). The results are expressed as percentage reduction in cell growth as compared to untreated control wells. […] Tamoxifen was included as the reference drug.

In data set [3] the target is T1, S. mansoni TGR (Schistosoma mansoni, UniProt Q962Y6).
T1 construct: made in house; host or cells: E. coli
T1 sequence (Q962Y6 1-598): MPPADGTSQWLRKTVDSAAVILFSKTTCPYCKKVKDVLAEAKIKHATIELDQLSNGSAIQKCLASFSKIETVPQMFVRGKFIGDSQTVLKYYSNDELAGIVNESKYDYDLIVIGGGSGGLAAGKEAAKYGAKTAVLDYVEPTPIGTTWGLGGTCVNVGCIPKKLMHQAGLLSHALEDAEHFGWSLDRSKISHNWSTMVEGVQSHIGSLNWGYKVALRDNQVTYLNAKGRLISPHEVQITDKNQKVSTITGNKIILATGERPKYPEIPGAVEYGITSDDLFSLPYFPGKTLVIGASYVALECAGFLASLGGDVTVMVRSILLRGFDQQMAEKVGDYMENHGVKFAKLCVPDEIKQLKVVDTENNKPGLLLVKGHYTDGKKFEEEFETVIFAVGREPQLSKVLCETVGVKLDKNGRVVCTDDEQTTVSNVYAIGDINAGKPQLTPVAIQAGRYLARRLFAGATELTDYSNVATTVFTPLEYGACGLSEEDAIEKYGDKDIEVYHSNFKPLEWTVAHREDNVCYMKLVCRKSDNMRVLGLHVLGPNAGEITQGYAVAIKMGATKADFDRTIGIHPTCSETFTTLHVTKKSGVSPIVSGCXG
The data set is described as follows: biochemical. The method, then: (§3) Enzymes were prepared in E. coli as described. Assays were performed at 25 °C in 0.1 M potassium phosphate (pH 7.4), 10 mM EDTA using 100 μM NADPH and 3 mM dithiobis(2-nitrobenzoic acid) (DTNB). […] The increase in A412 during the first 3 min was recorded upon DTNB addition. The reaction was done in triplicate.

Data set [4] concerns the target T1, S. mansoni TGR. On the set-up: method as in PMID 17579510.
The next data set has as its system RAW 264.7 macrophages. In words: Cytotoxicity on RAW 264.7 macrophages. In kind it is cell-based, murine. The conditions noted are these: 48 h incubation; 2880 min; read-out: Cytotoxicity on RAW 264.7 Macrophages CC50 (µM) ± SD. The method, then: (§4) Cytotoxicity was evaluated on RAW 264.7 macrophages that were maintained at 37 °C with 5% CO2 in Dulbecco’s Modified Eagle’s Medium (DMEM, Invitrogen, Toulouse, France) supplemented with 100 U/mL penicillin-streptomycin (Invitrogen) and 10% heat-inactivated fetal bovine serum, as previously described. Briefly, cells were plated in 96-well microplates at a density of 2 × 10^4 cells per well. After incubation for 24 h at 37 °C in 5% CO2, the medium was removed from each well and 100 µL of medium containing 2-fold serial dilutions of compounds was added to each well. After 48 h incubation at 37 °C in 5% CO2, 10 µL of 450 µM resazurin was added to each well and further incubated in the dark for 4 h. Cell viability was determined as described above. The cytotoxicity of the compounds was expressed as CC50.

A short description of data set [5]: Cytotoxicity on RAW 264.7 macrophages. The conditions noted are these: mouse, raw 264.7 macrophages, 48 h incubation; read-out: Cytotoxicity on RAW 264.7 Macrophages CC50 (µM) ± SD. In kind it is cell-based, murine. The method, then: as §4
Data set [6] has as its system L. infantum MHOM/MA (BE)/67 amastigotes. The data set is described as follows: Anti-leishmanial activity, L. infantum amastigotes in primary peritoneal mouse macrophages. Type of data set: cell-based, Leishmania infantum. To be noted: L. infantum amastigotes; equal IC50 and CC50 values. The protocol: Anti-leishmanial activity: L. infantum MHOM/MA (BE)/67 amastigotes were collected from the spleen of an infected donor hamster and used to infect primary peritoneal mouse macrophages grown in a 96-well plate. After 2 days outgrowth, 5 × 10^5 amastigotes were added to each well and incubated for 2 h at 37 °C. The compounds were subsequently added and the plates were further incubated for 5 days at 37 °C and 5% CO2. Parasite burdens (mean number of amastigotes/macrophage) were microscopically assessed on 500 cells after Giemsa staining and expressed as a percentage of the blank controls. Miltefosine was included as reference drug. The use of laboratory rodents was carried out in accordance to all mandatory guidelines (EU directives, including the Revised Directive 2010/63/EU on the Protection of Animals used for Scientific Purposes that came into force on 1 January 2013, and the declaration of Helsinki in its latest version) and was approved by the Ethical Committee of the University of Antwerp, Belgium [UA-ECD 2011–77 (17-02-2012 and UA-ECD 2015-90].

Data set [7] concerns the target T1, S. mansoni TGR. On the set-up: method as in PMID 17579510. This is another data set of the same source.
In data set [8] the target is T1, S. mansoni TGR. On the set-up: method as in PMID 17579510. This is another data set of the same source.
Data set [9] is described as follows: Cytotoxicity on primary mouse macrophages (PMM). The conditions noted are these: mouse, primary macrophages. The method, then: as §1, §2
The next data set has as its system mitochondrial TrxR2. On the set-up: method as in PMID 15458826. The conditions noted are these: 2 nM enzyme, 3 mM DTNB; steady state; read-out: IC50 TrxR, substrate DTNB (mitochondrial TrxR2 instead of cytosolic TrxR1); cited from earlier work.
The target of data set [10] is Human TrxR. On the set-up: method as in PMID 9685351. To be noted: 1.7 nM enzyme, steady state kinetic studies, read-out: Ki Human TrxR, substrate E. coli TrxS2, cited from earlier work.
Another data set deals with L. major. To be noted: read-out: IC50 against L. major; cited from earlier work.
In data set [11] the target is human thioredoxin reductase (TrxR). Details: method as in PMID 9685351. To be noted: cited from earlier work.
Another data set concerns the target L. infantum TR. To be noted: read-out: Ki L. infantum TR, substrate TS2; 40 nM enzyme, 50–400 µM TS2; steady state; cited from earlier work.
The next data set addresses B. pahangi TrxR. The data set is described as follows: B. pahangi TrxR enzyme assay, DTNB reduction (original data). Type of data set: biochemical, Brugia pahangi. The conditions noted are these: 20 nM enzyme, 3 mM DTNB; after 15 min preincubation; read-out: IC50 B. pahangi TrxR, substrate DTNB (original data). The protocol:
as §3

In a further data set the test system is L. amazonensis. To be noted: read-out: IC50 against L. amazonensis; cited from earlier work.
The subject of data set [12] is Human TrxR. To be noted: 2 nM enzyme, 3 mM DTNB; steady state kinetic studies; read-out: IC50 Human TrxR, substrate DTNB; cited from earlier work.
The subject of a further data set is S. mansoni. On the set-up: method as in PMID 17579510. To be noted: after multiple doses; cited from earlier work.
The subject of a further data set is Human GR. The conditions noted are these: 1.5 nM enzyme, 1 mM GSSG; steady state kinetic studies; read-out: IC50 Human GR, substrate GSSG; cited from earlier work.

Turning to `CC[P](CC)(CC)=[Au][S][C@@H]1O[C@H](COC(C)=O)[C@@H](OC(C)=O)[C@H](OC(C)=O)[C@H]1OC(C)=O` [Auranofin], the “drug remaining in the plasma” value in [1] was 15–25%. Also, the plasma concentration in data set [1] is 10000 ng/mL. Further, the CC50 (in general, the concentration that lowers cell viability or growth by half) at 72 h was 520 nM in [2] and 2000 nM in data set [9]. For the same compound, the IC50 (commonly the midpoint of a concentration-inhibition curve) against S. mansoni TGR [3] is 1.1 nM; at S. mansoni TGR [4] (read-out: IC50 S. mansoni TGR, substrate HED + GSSG; 20 nM enzyme, 8 mM substrate; after 15 min preincubation; cited from earlier work), 6 nM; on S. mansoni TGR [7] (read-out: IC50 S. mansoni TGR, substrate DTNB; 20 nM enzyme, 3 mM DTNB; after 15 min preincubation; cited from earlier work), 7 nM; at S. mansoni TGR [8] (read-out: IC50 S. mansoni TGR, substrate GSSG; 20 nM enzyme, 100 µM GSSG; after 15 min preincubation; cited from earlier work), 9 nM. Also, the CC50 in the data set with RAW 264.7 macrophages is 4.43 ± 0.08 µM. Besides, the CC50 at 48 h in data set [5] was around 4 µM. Besides, in data set [6], the “IC50 versus CC50 in the assays with mouse macrophages” value was “non-specific activity”.

For the compound `O=C(O)CC([S-])C(=O)O.[Au+]` (stereo not shown) [Aurothiomalate], the IC50 in the data set with mitochondrial TrxR2 is 280 nM; on S. mansoni TGR [4] (20 nM enzyme, 8 mM substrate; after 15 min preincubation; read-out: IC50 S. mansoni TGR, substrate HED + GSSG; cited from earlier work), 50 nM; at S. mansoni TGR [7] (20 nM enzyme, 3 mM DTNB; after 15 min preincubation; read-out: IC50 S. mansoni TGR, substrate DTNB; cited from earlier work), 90 nM; on S. mansoni TGR [8] (20 nM enzyme, 100 µM GSSG; after 15 min preincubation; read-out: IC50 S. mansoni TGR, substrate GSSG; cited from earlier work), 50 nM.

Turning to `CC(=O)OC[C@H]1O[C@@H]([S-])[C@H](OC(C)=O)[C@@H](OC(C)=O)[C@@H]1OC(C)=O.CCP(CC)CC.[Au+]` [Auranofin], the Ki – broadly, the equilibrium dissociation constant of an inhibitor or competing ligand from its target – at Human TrxR [10] (at 50 TrxS2) was 2 nM; at Human TrxR [10] (at 75 TrxS2), 3 nM; in data set [11], 4 nM; on L. infantum TR, 155 nM. Also, the IC50 was 70 nM in the data set with L. major; 0.5 nM at B. pahangi TrxR; 270 nM with L. amazonensis; 20 nM in the data set with Human TrxR [12]; 40000 nM in the data set on Human GR. Moreover, the “reduction of worm burdens in S. mansoni infected mice” value in the data set on S. mansoni was ~ 60%.
